# Literature values in patent US9980903B2, “Gastric retentive oral dosage form with restricted drug release in the lower gastrointestinal tract” (Depomed, Inc., priority 2001, dated 2018).
# Details: presently available immediate release dosage form
compound,measurement,value
"O=C(O)c1cn(C2CC2)c2cc(N3CCNCC3)c(F)cc2c1=O [Ciprofloxacin, 1-cyclopropyl-6-fluoro-1,4-dihydro-4-oxo-7-(1-piperazinyl)-3-quinolinecarboxylic acid]",time at which maximum serum concentration is attained after dosing,1 to 2 h
